Data reported in BindingDB's records for doi:10.1016/j.bmc.2008.06.036 (University of Texas Medical Branch, 2008).

Experiment: Inhibition of Bacillus anthracis edema factor-induced cytotoxicity in mouse RAW264.7 cells assessed as LDH release after 4 hrs

O=C(O)c1cccc(NC(=O)c2cccc3c2C(=O)c2ccccc2-3)c1 [3-[(9-oxo-9Hfluorene-1-carbonyl)-amino]-benzoic acid]
IC50: 1.7 µM

COC(=O)c1ccc([C@H]2Nc3ccc(C(=O)O)cc3[C@@H]3C=CC[C@H]23)cc1 [(3aS,4S,9bR)-4-(4-(methoxycarbonyl)phenyl)-3a,4,5,9b-tetrahydro-3H-cyclopenta[c]quinoline-8-carboxylic acid]
IC50: 100 µM
